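Compound exposure: 48 hours, 5 concentrations, 96-well plates. Abbreviation: GI50, concentration required for 50% inhibition of growth. Definition used: TGI = concentration required for complete inhibition of growth.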
Columns and labels:
Test in all cases: NCI tumour cell line growth inhibition, 48 h
[1] = test system: T-47D breast
[2] = test system: SF-295 CNS
[3] = test system: SNB-75 CNS
[4] = test system: NCI-H460 lung
[5] = test system: EKVX NSCLC
[6] = test system: RXF 393 renal
[7] = test system: SF-268 CNS
[8] = test system: A498 renal
[9] = test system: COLO 205 colon
[10] = test system: HCT-15 colon
[11] = test system: ACHN renal
[12] = test system: HL-60(TB) leukemia
[13] = test system: SW-620 colon
[14] = test system: HOP-62 NSCLC
[15] = test system: HT29 colon
[16] = test system: UACC-257 melanoma
[17] = test system: OVCAR-3 ovarian
[18] = test system: HS 578T breast
[19] = test system: OVCAR-8 ovarian
[20] = test system: HCC-2998 colon
[21] = test system: SNB-19 CNS
[22] = test system: U251 CNS
[23] = test system: MDA-MB-231 breast
[24] = test system: NCI-H23 lung
[25] = test system: SK-MEL-5 melanoma
[26] = test system: SF-539 CNS
[27] = test system: MCF7 breast
[28] = test system: OVCAR-5 ovarian
[29] = test system: DU-145 prostate
[30] = test system: MDA-MB-435
[31] = test system: KM12 colon
[32] = test system: SK-MEL-2 melanoma
[33] = test system: M14 melanoma
[34] = test system: PC-3 prostate
[35] = test system: NCI-H226 lung
[36] = test system: NCI/ADR-RES ovarian
[37] = test system: HOP-92 NSCLC
[38] = test system: SK-MEL-28 melanoma
[39] = test system: SN12C renal
[40] = test system: SR leukemia
[41] = test system: A549 NSCLC
[42] = test system: CAKI-1 renal
[43] = test system: RPMI-8226 leukemia
[44] = test system: TK-10 renal
[45] = test system: NCI-H522 lung
[46] = test system: HCT-116 colon
[47] = test system: UACC-62 melanoma
[48] = test system: OVCAR-4 ovarian
[49] = test system: MALME-3M melanoma
[50] = test system: 786-0 renal
[51] = test system: BT-549 breast
[52] = test system: IGROV1 ovarian
[53] = test system: MOLT-4 leukemia
[54] = test system: CCRF-CEM leukemia
[55] = test system: SK-OV-3 ovarian
[56] = test system: LOX IMVI melanoma
[57] = test system: UO-31 renal
[58] = test system: K-562 leukemia

`CC(C)N(CCNc1nc(C(Cl)(Cl)Cl)nc2cc(Cl)ccc12)C(C)C` was tested, and the GI50 [1] was 2.24 µM, the TGI [1] was 5.08 µM and the GI50 [2] was 1.73 µM. It also gave a TGI [2] of 3.66 µM, a GI50 [3] of 1.84 µM and a TGI [3] of 3.84 µM. The GI50 [4] was 1.13 µM, the TGI [4] was 2.6 µM and the GI50 [5] was 1.57 µM. The TGI [5] was 4.32 µM, the GI50 [6] was 1.41 µM and the TGI [6] was 2.78 µM. For the same compound, the GI50 [7] was 1.97 µM, the TGI [7] was 4.44 µM and the GI50 [8] was 1.27 µM. For the same compound, the TGI [8] was 2.66 µM, the GI50 [9] was 1.8 µM and the TGI [9] was 3.61 µM. The GI50 [10] was 1.12 µM, the TGI [10] was 2.48 µM and the GI50 [11] was 1.29 µM. For the same compound, the TGI [11] was 2.66 µM, the GI50 [12] was 1.52 µM and the TGI [12] was 3.6 µM. The GI50 [13] was 1.48 µM, the TGI [13] was 3.09 µM and the GI50 [14] was 1.6 µM. The TGI [14] was 3.12 µM, the GI50 [15] was 0.523 µM and the TGI [15] was 1.85 µM. For the same compound, the GI50 [16] was 1.93 µM, the TGI [16] was 3.49 µM and the GI50 [17] was 1.68 µM. The TGI [17] was 3.66 µM, the GI50 [18] was 1.56 µM and the TGI [18] was 3.99 µM. The GI50 [19] was 1.83 µM, the TGI [19] was 3.4 µM and the GI50 [20] was 1.34 µM. It also gave a TGI [20] of 2.86 µM, a GI50 [21] of 1.9 µM and a TGI [21] of 4.78 µM. It also gave a GI50 [22] of 1.21 µM, a TGI [22] of 2.53 µM and a GI50 [23] of 1.1 µM. The TGI [23] was 2.46 µM, the GI50 [24] was 1.61 µM and the TGI [24] was 3.47 µM. For the same compound, the GI50 [25] was 1.56 µM, the TGI [25] was 2.93 µM and the GI50 [26] was 1.82 µM. It also gave a TGI [26] of 3.38 µM, a GI50 [27] of 1.54 µM and a TGI [27] of 3.05 µM. For the same compound, the GI50 [28] was 1.16 µM, the TGI [28] was 2.48 µM and the GI50 [29] was 1.61 µM. For the same compound, the TGI [29] was 3.76 µM, the GI50 [30] was 1.71 µM and the TGI [30] was 3.47 µM. It also gave a GI50 [31] of 1.32 µM, a TGI [31] of 2.83 µM and a GI50 [32] of 1.76 µM. The TGI [32] was 3.63 µM, the GI50 [33] was 1.58 µM and the TGI [33] was 3.19 µM. For the same compound, the GI50 [34] was 1.15 µM, the TGI [34] was 2.73 µM and the GI50 [35] was 1.68 µM. For the same compound, the TGI [35] was 3.57 µM, the GI50 [36] was 1.54 µM and the TGI [36] was 3.39 µM. It also gave a GI50 [37] of 1.01 µM, a TGI [37] of 3.17 µM and a GI50 [38] of 1.8 µM. It also gave a TGI [38] of 3.38 µM, a GI50 [39] of 1.69 µM and a TGI [39] of 3.76 µM. For the same compound, the GI50 [40] was 0.926 µM, the TGI [40] was 3.11 µM and the GI50 [41] was 1.67 µM. For the same compound, the TGI [41] was 3.15 µM, the GI50 [42] was 1.6 µM and the TGI [42] was 3.17 µM. It also gave a GI50 [43] of 1.19 µM, a TGI [43] of 3.18 µM and a GI50 [44] of 1.46 µM. For the same compound, the TGI [44] was 2.88 µM, the GI50 [45] was 1.16 µM and the TGI [45] was 2.63 µM. The GI50 [46] was 1.31 µM, the TGI [46] was 2.66 µM and the GI50 [47] was 1.72 µM. The TGI [47] was 3.22 µM, the GI50 [48] was 1.35 µM and the TGI [48] was 2.96 µM. The GI50 [49] was 1.83 µM and the TGI [49] was 3.98 µM.

`CC(=O)CCC[C@@H](C)[C@@H]1O[C@H]([C@@]2(C)CCC(=O)O2)CC2[C@H]1OC(=O)C21CC1` (stereo partly drawn) was tested, and the GI50 [1] was > 100 µM, the TGI [1] was > 100 µM and the GI50 [2] was 61.6 µM. For the same compound, the TGI [2] was > 100 µM, the GI50 [50] was > 100 µM and the TGI [50] was > 100 µM. For the same compound, the GI50 [3] was > 100 µM, the TGI [3] was > 100 µM and the GI50 [51] was 25.5 µM. The TGI [51] was 63.4 µM, the GI50 [4] was 39.7 µM and the TGI [4] was > 100 µM. The GI50 [5] was 8.03 µM, the TGI [5] was 49.5 µM and the GI50 [6] was > 100 µM. For the same compound, the TGI [6] was > 100 µM, the GI50 [7] was > 100 µM and the TGI [7] was > 100 µM. The GI50 [9] was > 100 µM, the TGI [9] was > 100 µM and the GI50 [10] was > 100 µM. For the same compound, the TGI [10] was > 100 µM, the GI50 [11] was > 100 µM and the TGI [11] was > 100 µM. For the same compound, the GI50 [12] was > 100 µM, the TGI [12] was > 100 µM and the GI50 [13] was > 100 µM. The TGI [13] was > 100 µM, the GI50 [15] was > 100 µM and the TGI [15] was > 100 µM. The GI50 [16] was 50.7 µM, the TGI [16] was > 100 µM and the GI50 [17] was > 100 µM. The TGI [17] was > 100 µM, the GI50 [19] was > 100 µM and the TGI [19] was > 100 µM. For the same compound, the GI50 [52] was 55 µM, the TGI [52] was > 100 µM and the GI50 [20] was 77.2 µM. The TGI [20] was > 100 µM, the GI50 [21] was > 100 µM and the TGI [21] was > 100 µM. For the same compound, the GI50 [22] was 91.3 µM, the TGI [22] was > 100 µM and the GI50 [23] was > 100 µM. For the same compound, the TGI [23] was > 100 µM, the GI50 [24] was 15.3 µM and the TGI [24] was 59.6 µM. The GI50 [25] was 21.7 µM, the TGI [25] was 92.4 µM and the GI50 [26] was 60.6 µM. The TGI [26] was > 100 µM, the GI50 [27] was 22.3 µM and the TGI [27] was > 100 µM. The GI50 [28] was > 100 µM, the TGI [28] was > 100 µM and the GI50 [30] was > 100 µM. For the same compound, the TGI [30] was > 100 µM, the GI50 [31] was > 100 µM and the TGI [31] was > 100 µM. For the same compound, the GI50 [53] was 75.5 µM, the TGI [53] was > 100 µM and the GI50 [54] was > 100 µM. The TGI [54] was > 100 µM, the GI50 [55] was > 100 µM and the TGI [55] was > 100 µM. The GI50 [32] was > 100 µM, the TGI [32] was > 100 µM and the GI50 [34] was 52.5 µM. For the same compound, the TGI [34] was > 100 µM, the GI50 [36] was 71.3 µM and the TGI [36] was > 100 µM. The GI50 [37] was > 100 µM, the TGI [37] was > 100 µM and the GI50 [56] was 77.1 µM. The TGI [56] was > 100 µM, the GI50 [38] was > 100 µM and the TGI [38] was > 100 µM. The GI50 [57] was > 100 µM, the TGI [57] was > 100 µM and the GI50 [39] was > 100 µM. The TGI [39] was > 100 µM, the GI50 [40] was 29.4 µM and the TGI [40] was > 100 µM. For the same compound, the GI50 [41] was > 100 µM, the TGI [41] was > 100 µM and the GI50 [42] was 61.2 µM. The TGI [42] was > 100 µM, the GI50 [58] was > 100 µM and the TGI [58] was > 100 µM. For the same compound, the GI50 [43] was > 100 µM, the TGI [43] was > 100 µM and the GI50 [45] was > 100 µM. The TGI [45] was > 100 µM, the GI50 [46] was > 100 µM and the TGI [46] was > 100 µM. For the same compound, the GI50 [47] was > 100 µM, the TGI [47] was > 100 µM and the GI50 [48] was > 100 µM. For the same compound, the TGI [48] was > 100 µM.

Source: PubChem BioAssay (NCI)
